Source: patent US20160346249A1 (priority 2012, published 2016)
“And” between values parts separate entries of the source, which are not always exact repeats. Equal entries are not always repeated. Where two headings read alike, the source gives them in different places.

What was measured:
[1] = 12-month dog toxicity and toxicokinetic study; type: in vivo; conditions: dog, in vivo
Description: Blood samples were collected on Days 0, 91, 181, 268 and 358 from up to 4 animals/gender/group. Plasma samples collected on Days 91, 181, 268, as well as all plasma samples collected from the control group were not evaluated.
For toxicology assessment four dogs of each gender were included in each group. Assessments included clinical observations, body weight, and food consumption measures which were recorded periodically during the study. Ophthalmic examinations were performed during Weeks 1, 12, 25, 38, 51, and 55 (recovery period). Electrocardiograms were recorded during Weeks 2, 12, 25, 38, and 51. Clinical pathology evaluations (hematology, serum chemistry, and urinalysis) were performed during Weeks 1, 12, 25, 38, 52, and 56 (recovery period). At termination, complete necropsies were performed on all dogs and selected organs were weighed. Selected tissues from the control and 20 (15) mg/kg/day group animals and animals euthanized in extremis were examined microscopically. Sections of livers from dogs in the control and 20 (15) mg/kg/day groups were collected at both the primary and 4-week post-treatment recovery necropsies for assessment of drug metabolism enzyme (microsomal cytochrome P450) activity.

[2] = Crl:CD-1(ICR) BR, mouse, in vivo
[3] = Single dose 300 mg / 450 mg pharmacokinetic, safety and tolerability study in healthy male and female subjects; conditions: for Cmax / half-life / Tmax / AUC(0-t) / concentration at 0 h / concentration at 0.5 h / concentration at 1 h / concentration at 2 h / concentration at 3 h / concentration at 4 h / concentration at 6 h / concentration at 8 h / concentration at 10 h / concentration at 12 h / concentration at 18 h / concentration at 24 h / concentration at […]: human, plasma
Description: Fourteen subjects, divided equally between males and females, were enrolled in the study and randomized between test article (5/sex) and placebo (2/sex). […] All subjects met the inclusion and exclusion criteria for entry into the study as detailed in the protocol and signed an informed consent form.
The subjects were confined to the clinical study site from Day −1 to the morning of Day 2, when they underwent a brief physical examination, clinical laboratory tests, and a physician visit before they were discharged. On Day 7, they reported to the clinical site again and were confined to the site until the morning of Day 9. At that time, they underwent a complete physical examination, clinical laboratory tests, and a physician's visit before they were discharged from the study. All subjects were fasted overnight on Days −1 and 7 from approximately 22:00 to approximately 4 hours post-dose on Days 1 and 8, at which time they received a standard lunch.
Subjects that received the placebo (2/sex) ingested six identical looking capsules with no drug. […] Capsules on both days were ingested with 240 mL water. […] Samples were collected into lithium heparin-containing Vacutainers® and centrifuged at approximately 3000 rpm to obtain the plasma fraction. The plasma was split into two polypropylene tubes and stored at −20° C. […] The urine volumes were recorded and an aliquot was stored for drug concentration measurements.
Validated LC/MS/MS assays were used for analyses; the assay range for both analytes in plasma and urine were 5.00 to 2000 ng/mL.
Plasma concentration-time data for each subject were analyzed with WinNonlin, version 4.1 (Pharsight Corporation, Mountain View, Calif.) using a non-compartmental model. […] Plasma concentrations listed as not detected (ND) or below the lower limit of quantitation (LLOQ) were set to zero. The values of Cmax and Tmax were the observed values for each subject. AUC0-t was determined using the linear trapezoidal rule whenever the concentration data were increasing and the logarithmic trapezoidal rule any time that the concentration data were decreasing. The apparent λz was calculated as the negative slope of the log-linear terminal portion of the blood concentration-time curve using linear regression. To allow for accurate calculation of λz, a minimum of three observations, selected by WinNonlin, was used. The t½ was calculated as ln 2/λz. AUC0-t was extrapolated to infinity (AUC0-∞) as follows: AUC0-∞=AUC0-t+Clast/λz where Clast is the last quantifiable concentration. The apparent oral clearance (CL/F) was calculated as Dose/AUC0-∞. The apparent oral volume of distribution (Vz/F) was calculated as Dose/λz×AUC0-∞. The mean residence time from time zero to infinity (MRT0-∞) was calculated as AUMC0-∞/AUC0-∞.

O=C1NCC2(c3ccc(Cl)c(Cl)c3)CC12 (stereo not shown) [EB-10101, 5-(3,4-dichloro-phenyl)-3-aza-bicyclo[3.1.0]hexan-2-one]
AUC0-24 of metabolite relative to parent drug, any individual animal [1]: ≤ 3.5 fold | AUC0-24 of metabolite relative to parent drug [2]: 2-5 fold | AUC0-24 of metabolite relative to parent drug ([2]; 150 mg/kg/day): ≤ 10 fold | AUC24-∞ as share of total exposure ([3]; 300 mg): 38% | concentration at 24 hr as % of Cmax ([3]; 300 mg): 50% | ingested dose in urine as lactam (0-24 hr) ([3]; 300 mg): 0.075% | AUC24-∞ as share of total exposure ([3]; 450 mg): 54% | concentration at 24 hr as % of Cmax ([3]; 450 mg): 65% | ingested dose in urine as lactam (0-24 hr) ([3]; 450 mg): 0.067% | Cmax ([3]; both, oral, 300 mg): 2030 ng/mL | half-life ([3]; both, oral, 300 mg, harmonic mean of half-life of lactam): 14.3 h | Cmax ([3]; both, oral, 450 mg): 2950 ng/mL | Tmax ([3]; both, oral, 450 mg): 7.8 to 9 h | half-life ([3]; both, oral, 450 mg, harmonic mean of half-life of lactam): 19.8 h | AUC(0-t) ([3]; both, po, 300 mg): 33300 ng·h/mL | Cmax ([3]; both, po, 300 mg): 2030 ng/mL | Tmax ([3]; both, po, 300 mg): 7.8 h | concentration at 0 h ([3]; both, po, 300 mg): 0 ng/mL | concentration at 0.5 h ([3]; both, po, 300 mg): 42.8 ng/mL | concentration at 1 h ([3]; both, po, 300 mg): 296 ng/mL | concentration at 2 h ([3]; both, po, 300 mg): 900 ng/mL | concentration at 3 h ([3]; both, po, 300 mg): 1410 ng/mL | concentration at 4 h ([3]; both, po, 300 mg): 1540 ng/mL | concentration at 6 h ([3]; both, po, 300 mg): 1690 ng/mL | concentration at 8 h ([3]; both, po, 300 mg): 1900 ng/mL | concentration at 10 h ([3]; both, po, 300 mg): 1830 ng/mL | concentration at 12 h ([3]; both, po, 300 mg): 1580 ng/mL | concentration at 18 h ([3]; both, po, 300 mg): 1390 ng/mL | concentration at 24 h ([3]; both, po, 300 mg): 1010 ng/mL | concentration at […] ([3]; both, po, 300 mg): 1.52 ng/mL and 175 ng/mL and 473 ng/mL and 589 ng/mL | half-life ([3]; both, po, 300 mg, t½ (Harmonic mean), single oral 300 mg DOV 21,947 HCl IR, N = 10): 14.3 h | half-life ([3]; both, po, 300 mg, t½, single oral 300 mg DOV 21,947 HCl IR, arithmetic mean, N = 10): 15.4 h | AUC(0-t) ([3]; both, po, 450 mg): 50700 ng·h/mL | Cmax ([3]; both, po, 450 mg): 2950 ng/mL | Tmax ([3]; both, po, 450 mg): 9 h | concentration at 0 h ([3]; both, po, 450 mg): 0 ng/mL | concentration at 0.5 h ([3]; both, po, 450 mg): 71 ng/mL | concentration at 1 h ([3]; both, po, 450 mg): 337 ng/mL | concentration at 2 h ([3]; both, po, 450 mg): 1330 ng/mL | concentration at 3 h ([3]; both, po, 450 mg): 1820 ng/mL | concentration at 4 h ([3]; both, po, 450 mg): 2160 ng/mL | concentration at 6 h ([3]; both, po, 450 mg): 2520 ng/mL | concentration at 8 h ([3]; both, po, 450 mg): 2670 ng/mL | concentration at 10 h ([3]; both, po, 450 mg): 2770 ng/mL | concentration at 12 h ([3]; both, po, 450 mg): 2620 ng/mL | concentration at 18 h ([3]; both, po, 450 mg): 2010 ng/mL | concentration at 24 h ([3]; both, po, 450 mg): 1920 ng/mL | concentration at […] ([3]; both, po, 450 mg): 0 ng/mL and 184 ng/mL and 646 ng/mL and 807 ng/mL | half-life ([3]; both, po, 450 mg, t½ (Harmonic mean), single oral 450 mg DOV 21,947 HCl IR, N = 10): 19.8 h | half-life ([3]; both, po, 450 mg, t½, single oral 450 mg DOV 21,947 HCl IR, arithmetic mean, N = 10): 32.6 h | AUC(0-t) ([3]; female, po, 300 mg): 37300 ng·h/mL | Cmax ([3]; female, po, 300 mg): 2320 ng/mL | Tmax ([3]; female, po, 300 mg): 9.2 h | concentration at 0 h ([3]; female, po, 300 mg): 0 ng/mL | concentration at 0.5 h ([3]; female, po, 300 mg): 22.8 ng/mL | concentration at 1 h ([3]; female, po, 300 mg): 188 ng/mL | concentration at 2 h ([3]; female, po, 300 mg): 760 ng/mL | concentration at 3 h ([3]; female, po, 300 mg): 1340 ng/mL | concentration at 4 h ([3]; female, po, 300 mg): 1600 ng/mL | concentration at 6 h ([3]; female, po, 300 mg): 1870 ng/mL | concentration at 8 h ([3]; female, po, 300 mg): 2210 ng/mL | concentration at 10 h ([3]; female, po, 300 mg): 1980 ng/mL | concentration at 12 h ([3]; female, po, 300 mg): 1760 ng/mL | concentration at 18 h ([3]; female, po, 300 mg): 1690 ng/mL | concentration at 24 h ([3]; female, po, 300 mg): 1190 ng/mL | concentration at […] ([3]; female, po, 300 mg): 0 ng/mL and 111 ng/mL and 317 ng/mL and 426 ng/mL | half-life ([3]; female, po, 300 mg, t½ (Harmonic mean), single oral 300 mg DOV 21,947 HCl IR, N = 5): 15 h | half-life ([3]; female, po, 300 mg, t½, single oral 300 mg DOV 21,947 HCl IR, N = 5, arithmetic mean): 15.5 h | AUC(0-t) ([3]; female, po, 450 mg): 55300 ng·h/mL | Cmax ([3]; female, po, 450 mg): 3360 ng/mL | Tmax ([3]; female, po, 450 mg): 8.8 h | concentration at 0 h ([3]; female, po, 450 mg): 0 ng/mL | concentration at 0.5 h ([3]; female, po, 450 mg): 35.2 ng/mL
